The experiment has as its system male accessory sex glands and tissues in sexually immature castrated male rats. The experiment in a line: Oral Hershberger Assay: weights of male accessory sex glands and tissues after ten days of oral gavage. The experiment is classed as in vivo, rat. As to conditions: ten consecutive days. As to the method:
Applicants performed a set of experiments to identify the potential for a compound to mimic endogenous sex hormones. An in vivo study was performed using a short-term screening assay to identify changes in weights of male accessory sex glands and tissues in sexually immature castrated male rats. The study preformed is known in the art as an “Oral Hershberger Assay”.
This study included forty-two sexually immature castrated male rats that were randomly assigned to seven different groups and assigned formulations of the test article, oxandrolone, positive control article, 17α-methyl testosterone, or the vehicle, aqueous 0.5% methylcellulose. These formulations were administered orally via gavage once daily for ten consecutive days at dosages of 0 (vehicle), 1, 3 and 10 mg/kg/day. The dosage volume was 0.5 mL/kg, adjusted daily for body weight changes and were given at approximately the same time each day.
Approximately 24 hours after the last dosage administration the rats were euthanized via carbon dioxide asphyxiation. The following tissues were excised trimmed and weighed: liver, paired adrenal glands, paired kidneys, ventral prostate, seminal vesicles together with the coagulating gland, levator ani and bulbocavemous muscles, glands penis and cowper's gland. These tissues were retained in neutral buffered 10% formalin to be used for any possible future evaluation.
The following table presents the percent changes from the control group value.

With `C[C@]12CCC(=O)C=C1CC[C@@H]1[C@@H]2CC[C@@]2(C)[C@H]1CC[C@]2(C)O` [Meth-Test, 17α-methyl testosterone], where the note is “1 mg/kg/day orally via gavage”, the “Cowpers Gland, percent changes from the control group value” (“Cowpers Gland, percent changes” for short) is given as 88.7%; the “Glands Penis, percent changes from the control group value” (“Glands Penis, percent changes” for short) was found to be 127.9%; the “Levator Ani and Bulbocavernous, percent changes from the control group value” was found to be 111.0%; the “Prostate (Fixed), percent changes from the control group value” (“Prostate (Fixed), percent changes” below) was determined as 101.9%. In addition, for the setting “1 mg/kg/day orally via gavage”, the “Prostate, percent changes from the control group value” (shortened to “Prostate, percent changes”) is recorded as 97.0% and the “Seminal Vesicles with Fluid, percent changes from the control group value” worked out at 89.6%. Further, under “3 mg/kg/day orally via gavage”, the “Cowpers Gland, percent changes” value was 179.0%; the “Glands Penis, percent changes” value was 102.6%; the “Levator Ani and Bulbocavernous, percent changes from the control group value” came to 114.2%; the “Prostate (Fixed), percent changes” value came out at 119.0%. Under “3 mg/kg/day orally via gavage”, the “Prostate, percent changes” value was 109.1% and the “Seminal Vesicles with Fluid, percent changes from the control group value” is 118.0%. Besides, where the note is “10 mg/kg/day orally via gavage”, the “Cowpers Gland, percent changes” value turned out to be 237.1%; the “Glands Penis, percent changes” value turned out to be 122.9%; the “Levator Ani and Bulbocavernous, percent changes from the control group value” is on record as 139.7%; the “Prostate (Fixed), percent changes” value stood at 234.0%. For the same molecule, for the setting “10 mg/kg/day orally via gavage”, the “Prostate, percent changes” value came out at 222.5% and the “Seminal Vesicles with Fluid, percent changes from the control group value” was 194.4%.

On to `C[C@]12COC(=O)C[C@@H]1CC[C@@H]1[C@@H]2CC[C@@]2(C)[C@H]1CC[C@]2(C)O` [Oxandro, oxandrolone], for which, for the setting “1 mg/kg/day orally via gavage”, the “Cowpers Gland, percent changes” value is 137.1%; the “Glands Penis, percent changes” value came to 104.1%; the “Levator Ani and Bulbocavernous, percent changes from the control group value” turned out to be 107.3%; the “Prostate (Fixed), percent changes” value came out at 127.6%. Besides, where the note is “1 mg/kg/day orally via gavage”, the “Prostate, percent changes” value is listed as 135.3% and the “Seminal Vesicles with Fluid, percent changes from the control group value” is given as 100.7%. Where the note is “3 mg/kg/day orally via gavage”, the “Cowpers Gland, percent changes” value stood at 159.7%; the “Glands Penis, percent changes” value was found to be 107.4%; the “Levator Ani and Bulbocavernous, percent changes from the control group value” was 148.2%; the “Prostate (Fixed), percent changes” value stood at 149.9%. For the setting “3 mg/kg/day orally via gavage”, the “Prostate, percent changes” value was found to be 139.4% and the “Seminal Vesicles with Fluid, percent changes from the control group value” turned out to be 120.1%. Besides, where the note is “10 mg/kg/day orally via gavage”, the “Cowpers Gland, percent changes” value is given as 206.5%; the “Glands Penis, percent changes” value is reported as 109.6%; the “Levator Ani and Bulbocavernous, percent changes from the control group value” stood at 192.4%; the “Prostate (Fixed), percent changes” value worked out at 192.2%. Under “10 mg/kg/day orally via gavage”, the “Prostate, percent changes” value is recorded as 166.3% and the “Seminal Vesicles with Fluid, percent changes from the control group value” is listed as 171.0%.

(Values after US20030191096A1, “Method of hormonal therapy” (priority 2002, published 2003).)
